Values joined by “and” are separate entries in the source; they are usually repeats but may differ in a detail not shown here. Identical values can stand only once. “Also recorded” adds a separate entry of the source. Like-named read-outs stand apart in the source and are kept apart here.
What was measured:
huAChE = huAChE (Homo sapiens, UniProt P22303); test: Inhibition of huAChE, method of Ellman; format: biochemical; conditions: compound at 100 µM; read-out: huAChE residual activity (RA)
Protocol: (§1) The inhibitory potencies of these probes against cholinesterases (i.e. huAChE, murine AChE [mAChE] and huBChE) were determined using the method of Ellman[18], as previously described. The assays were carried out at room temperature in 100 mM phosphate buffer, pH 8.0, containing 333 µM Ellman reagent (5,5′-dithiobis(2-nitrobenzoic acid); DTNB), 500 µM substrate (huAChE/mAChE: acetylthiocholine; huBChE: butyrylthiocholine iodide [BSCh]) and huAChE/mAChE or huBChE (50 pM, 1 nM, respectively). […] Formation of the yellow product was followed for 1 min as the change in the absorbance at 412 nm, using a microplate reader (Synerg H4; BioTek Instruments, Inc., USA). For screening for inhibitory activities, the compounds were assayed at 100 µM, in triplicate. The initial velocities in the absence (v0) and presence (vi) of the test compounds were calculated. […].
(§2) For the IC50 measurements, serial dilutions were prepared for the compounds with RAs <50% at 100 µM. The IC50 values were calculated by plotting the RAs against the compound concentration according to a four-parameter logistic function, using the GraphPad Prism 8 software (GraphPad Software, USA). All of the measurements were repeated twice, each of which was in triplicate.

mAChE = mAChE (Mus musculus, UniProt P21836); test: Inhibition of mAChE, method of Ellman; format: biochemical; conditions: compound at 100 µM; read-out: mAChE residual activity (RA)
Chain of mAChE (P21836 32-614): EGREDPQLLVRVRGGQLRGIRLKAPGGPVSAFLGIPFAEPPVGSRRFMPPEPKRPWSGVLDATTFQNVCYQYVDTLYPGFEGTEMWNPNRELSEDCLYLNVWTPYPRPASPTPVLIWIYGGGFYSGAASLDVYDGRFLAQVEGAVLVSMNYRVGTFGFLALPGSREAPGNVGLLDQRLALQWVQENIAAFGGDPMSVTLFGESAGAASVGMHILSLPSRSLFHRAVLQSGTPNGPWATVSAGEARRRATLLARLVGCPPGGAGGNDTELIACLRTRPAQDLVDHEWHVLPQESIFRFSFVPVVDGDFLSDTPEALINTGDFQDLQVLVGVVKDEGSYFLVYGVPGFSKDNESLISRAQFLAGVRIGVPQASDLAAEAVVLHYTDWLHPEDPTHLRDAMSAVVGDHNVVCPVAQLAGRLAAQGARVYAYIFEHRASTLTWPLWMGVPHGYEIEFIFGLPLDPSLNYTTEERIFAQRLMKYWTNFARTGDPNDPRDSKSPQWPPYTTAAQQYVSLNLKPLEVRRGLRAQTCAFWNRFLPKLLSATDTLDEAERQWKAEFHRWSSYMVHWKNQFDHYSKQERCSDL
Protocol: as §1, §2

hBChE [1] = target: T1, hBChE (Homo sapiens, UniProt P06276); test: Inhibition of huBChE, method of Ellman; format: biochemical; conditions: for remaining activity at 100 µM: compound at 100 µM, read-out: huBChE residual activity (RA); for IC50: 500 µM butyrylthiocholine iodide, 1 nM enzyme, pH 8.0, room temperature
T1 sequence (P06276 29-602): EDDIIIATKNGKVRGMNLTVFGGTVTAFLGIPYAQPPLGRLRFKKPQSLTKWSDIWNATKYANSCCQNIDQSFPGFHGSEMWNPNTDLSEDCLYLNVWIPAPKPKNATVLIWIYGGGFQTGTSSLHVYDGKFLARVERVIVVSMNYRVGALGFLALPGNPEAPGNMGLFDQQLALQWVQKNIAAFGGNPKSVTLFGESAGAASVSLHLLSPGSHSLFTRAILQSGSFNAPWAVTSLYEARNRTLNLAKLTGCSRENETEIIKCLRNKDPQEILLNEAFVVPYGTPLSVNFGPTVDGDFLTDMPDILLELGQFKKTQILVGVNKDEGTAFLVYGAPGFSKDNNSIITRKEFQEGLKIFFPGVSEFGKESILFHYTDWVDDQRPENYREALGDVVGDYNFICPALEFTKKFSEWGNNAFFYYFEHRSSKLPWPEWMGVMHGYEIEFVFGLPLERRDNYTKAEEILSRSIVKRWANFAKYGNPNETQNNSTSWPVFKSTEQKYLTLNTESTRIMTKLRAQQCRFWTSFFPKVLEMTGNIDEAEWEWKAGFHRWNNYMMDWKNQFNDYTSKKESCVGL
Protocol: as §1, §2

BChE in rat brain slices = target: T2, BChE in rat brain slices (Rattus norvegicus, UniProt Q9JKC1); conditions: rat brain cryosections, AChE blocked with 0.1 mM BW-284C51
T2 construct: coronal cryosections (10 μm) of a rat brain; from tissue; host or cells: rat brain coronal cryosections at the level of the thalamus
T2 sequence (Q9JKC1 24-597): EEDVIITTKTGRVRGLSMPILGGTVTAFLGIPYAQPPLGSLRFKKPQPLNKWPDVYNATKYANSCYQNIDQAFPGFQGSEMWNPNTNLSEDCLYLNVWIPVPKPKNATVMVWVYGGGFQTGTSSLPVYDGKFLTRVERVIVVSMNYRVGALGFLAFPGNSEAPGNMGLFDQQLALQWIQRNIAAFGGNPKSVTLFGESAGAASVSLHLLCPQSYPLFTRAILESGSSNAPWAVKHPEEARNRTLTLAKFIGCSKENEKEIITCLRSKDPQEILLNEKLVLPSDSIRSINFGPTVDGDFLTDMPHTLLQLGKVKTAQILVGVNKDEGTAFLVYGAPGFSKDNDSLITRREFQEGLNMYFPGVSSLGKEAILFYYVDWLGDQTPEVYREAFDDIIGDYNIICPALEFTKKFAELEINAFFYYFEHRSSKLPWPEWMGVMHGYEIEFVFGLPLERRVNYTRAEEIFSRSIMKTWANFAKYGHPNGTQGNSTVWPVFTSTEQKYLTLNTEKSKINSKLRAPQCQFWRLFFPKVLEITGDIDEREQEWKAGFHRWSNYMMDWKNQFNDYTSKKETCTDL
Protocol: Sections of rat brain with the highest BChE activity were selected and the modified Koelle − Karnovsky histochemical method was used to detect BChE activity[16]^,[40–42].
Histochemical staining for BChE activity of coronal cryosections (10 μm) of a rat brain from two regions (top/bottom row) at the level of the thalamus. All sections were processed with 0.1 mM BW-284C51 in Koelle solution, to completely block AChE activity. […] The relative optical density (ROD) pseudocolor scale for staining intensity of BChE activity is on the right.
BChE activity histochemical staining of coronal cryosections (10 μm) of a rat brain from
two regions at the level of the thalamus. All sections were processed with 0.1 mM BW-284C51 in
Koelle solution to completely block the AChE activity (A, B). For the inhibition experiment, the
relative optical density (ROD) pseudocolor scale for the staining intensity of BChE activity is shown
on the right. The photomicrographs show BChE -rich neurons in the laterodorsal thalamic nucleus

hBChE [2] = target: T1, hBChE; test: Fluorescence emission of probes on binding to huBChE; conditions: probe 1 μM, huBChE 500 nM, buffer
Text: The fluorescence properties of probes 2C and 3B were then examined when they were bound to huBChE. […] This mirrored the differences in the emission of probe 2C between the buffer solution and the organic solvents (Figure 6(B)). […]. Most probably this is due to unspecific binding to protein surface and titration study (see Supplemental material) confirms this. Future development of probe 2C should thus be orientated towards lowering the lipophilicity, which should, in turn, reduce unspecific binding.
Figure 7. […]

hBChE [3] = target: T1, hBChE; test: Fluorescence titration of hBChE with probe 2C; conditions: in duplicate, fitted to sum of hyperbolic and linear equation; read-out: binding constant from fluorescence titration
Protocol: 4. Titration of hBChE with probe 2C
Figure S2. The fluorescence titration data, in duplicate, were simultaneously fitted to the sum of hyperbolic and linear equation. The determined binding constant for probe 2C was 5.5 +/- 1.6 nM, remarkably similar to the inhibition constant for the binding to the free enzyme (3.3 nM, see Table 1 in […]
(1 picture or pasted object on this page, not shown here)

purified huBChE = target: T3, purified huBChE (Homo sapiens, UniProt P06276); test: Kinetic studies: progress curves of BSCh hydrolysis by purified huBChE; format: biochemical; conditions: 25 °C, 25 mM phosphate buffer pH 7.0, about 50 µM BSCh
T3 construct: gift from Drs; O. Lockridge and L. Schopfer
T3 sequence (P06276 29-602): as the sequence (P06276 29-602) above
Protocol: Purified huBChE was a generous gift from Drs. O. Lockridge and L. Schopfer. DTNB and BSCh were from Sigma. All other reagents used were of analytical grade. The experiments were carried out at 25 °C in 25 mM phosphate buffer, pH 7.0.
Three compounds (2C, 3A, 3B) were tested by measuring the progress curves for BSCh hydrolysis by huBChE in the absence and presence of each of these compounds at five to seven concentrations. Assays were carried out over 10 min, in a 0.6-ml cuvette, using the method of Ellman et al[18]. The compound concentrations used were: 2C, 0–1 µM; 3A, 0–200 µM; and 3B, 0–50 nM.
The concentration of purified huBChE, which was always the final addition to these assays, was ∼0.5 nM. The hydrolysis of 50 µM BSCh was followed until completion (in most cases), in the presence of 1 mM DTNB. Reaching the plateau was important to get a precise estimate of the actual added BSCh concentration. For the calculation, the molar absorption coefficient of […] was used. All of the measurements were performed using a conventional UV/Vis spectrophotometer (Lambda45; Perkin-Elmer). Due to the experimental manipulation, a dead time of 10 s was added to each measurement, and all progress curves were extrapolated accordingly prior to the analysis.
. This programme is designed to generate differential equations from drawn reaction schemes and subsequently to fit the coefficients of these equations according to least squares methodology to reproduce the experimental data using a numerical integration algorithm. For determination of the kinetics mechanisms and parameters, the van Slyke-Cullen single intermediate reaction scheme[23] for substrate hydrolysis by huBChE was combined with a reversible mixed inhibition mechanism (Figure 1). […]
Figure 1. Reaction scheme for the inhibition of BSCh hydrolysis by purified huBChE in the presence of DTNB by compounds 2C, 3A, and 3B. E, free enzyme; EA, acylated intermediate; S, substrate BSCh; P, all of the stoichiometrically released products (SCh-TNB, TNB^–); and I, compounds (inhibitors) 2C, 3A, and 3B. The symbols for the constants are: kcat (k1), catalytic constant for BSCh turnover; Km (k0), Michaelis constant; Kp = k3/k2, inhibition constant for binding of the product thiocholine-TNB; K1 = k5/k4 and K2 = k7/k6, dissociation constants for binding of the compounds to the free and acylated enzyme, respectively.

[4] = Solubility in aqueous buffers; format: physicochemical
[5] = read-out: K1, dissociation constant for binding to the free enzyme
[6] = read-out: K2, dissociation constant for binding to the acylated enzyme

Chain of huAChE (P22303 32-614): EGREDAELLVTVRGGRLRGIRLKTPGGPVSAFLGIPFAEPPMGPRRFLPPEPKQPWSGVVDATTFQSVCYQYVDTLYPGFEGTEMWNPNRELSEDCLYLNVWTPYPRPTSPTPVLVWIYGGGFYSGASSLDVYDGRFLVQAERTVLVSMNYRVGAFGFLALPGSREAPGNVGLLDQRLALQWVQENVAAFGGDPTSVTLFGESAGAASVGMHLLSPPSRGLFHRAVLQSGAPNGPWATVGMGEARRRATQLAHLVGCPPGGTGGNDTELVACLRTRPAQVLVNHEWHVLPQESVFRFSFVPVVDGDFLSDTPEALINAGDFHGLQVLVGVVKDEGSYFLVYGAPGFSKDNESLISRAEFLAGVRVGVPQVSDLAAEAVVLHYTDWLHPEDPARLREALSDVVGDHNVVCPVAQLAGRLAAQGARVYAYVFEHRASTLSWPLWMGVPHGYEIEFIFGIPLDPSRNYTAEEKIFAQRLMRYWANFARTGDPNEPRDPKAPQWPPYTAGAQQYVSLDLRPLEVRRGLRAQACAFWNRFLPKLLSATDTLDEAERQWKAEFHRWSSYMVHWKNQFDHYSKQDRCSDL

Structure (SMILES) | remaining activity at 100 µM (huAChE) [%] | remaining activity at 100 µM (mAChE) [%] | huBChE inhibition (in words) (hBChE [1]) | remaining activity at 100 µM (hBChE [1]) [%] | concentration needed to achieve substantial inhibition of BChE (BChE in rat brain slices) [mM] | enhancement of fluorescence intensity on addition of huBChE (hBChE [2]) | IC50 (hBChE [1]) [nM] | Kd (hBChE [3]) [nM] | Ki (purified huBChE; [5]) | Ki (purified huBChE; [6]) [nM] | solubility in aqueous buffers (in words) [4]
CCN(CC)c1ccc2cc(C(=O)N(CCOC)CC3CCCN(Cc4ccccc4)C3)c(=O)oc2c1 (stereo not drawn) [1A] | 89 | 92 | – | – | – | – | – | – | – | – | –
CN(C)CCNC(=O)c1cc2ccc(N(C)C)cc2oc1=O [2A] | 18 | – | very low and unselective inhibition of BChE | 57 | – | – | – | – | – | – | –
CN(C)c1ccc2cc(C(=O)NCC[N+](C)(C)C)c(=O)oc2c1 [2B] | 25 | – | very low and unselective inhibition of BChE | 54 | – | – | – | – | – | – | –
CCN(CC)c1ccc2cc(-c3nc(CN4CCCC(CN(CCN(C)C)C(=O)c5ccc6ccccc6c5)C4)cs3)c(=O)oc2c1 (stereo not drawn) [2C] | > 74 | 70 | – | – | 1 | approximately two-fold | 88 | 5.5 ± 1.6 | 3.3 nM and 3.27 nM | 42.7 ± 1.5 | sufficient aqueous solubility
CCN(CC)c1ccc2cc(C(=O)NCCOCCOCCN(CC3CCCN(Cc4ccccc4)C3)S(=O)(=O)c3ccc4ccccc4c3)c(=O)oc2c1 (stereo not drawn) [3A] | 94 | 93 | – | – | – | – | 60 | – | 63 ± 0.5 nM | 296 ± 2 | poor solubility in aqueous buffers; also recorded: low solubility
O=[N+]([O-])c1ccc(N2CCN(CCN(CC3CCCN(Cc4ccccc4)C3)S(=O)(=O)c3ccc4ccccc4c3)CC2)c2nonc12 (stereo not drawn) [3B] | 57 | 97 | – | – | 1 | only marginally increased | 18 | – | 4.63 ± 0.02 nM | 96.6 ± 2 | improved solubility in aqueous solutions compared to 3A; also recorded: sufficient aqueous solubility
[N-]=[N+]=NCCOCCN(CC1CCCN(Cc2ccccc2)C1)S(=O)(=O)c1ccc2ccccc2c1 (stereo not drawn) [3C] | 84 | 94 | retained good inhibitory activity | – | – | – | 19 | – | – | – | –
O=[N+]([O-])c1ccc(N2CCN(Cc3cn(CCOCCN(CC4CCCN(Cc5ccccc5)C4)S(=O)(=O)c4ccc5ccccc5c4)nn3)CC2)c2nonc12 (stereo not drawn) [3D] | 98 | 100 | substantial loss of inhibitory activity | – | – | – | 214 | – | – | – | –

From article PMC6968640, “Development of potent reversible selective inhibitors of butyrylcholinesterase as fluorescent probes” (Journal of Enzyme Inhibition and Medicinal Chemistry, 2020)
